# Laboratory results as given in patent US20250129002A1, “PRODUCTION METHOD OF PRODUCT 1,3-BUTYLENE GLYCOL” (KH Neochem Co., Ltd., priority 2021, published 2025).
# System: Cysteine-containing peptide for DPRA
# Assay: Skin sensitization test in accordance with DPRA (direct peptide reactivity assay)
# Details: relative to peptide decrease percentage of Comparative Example 1 regarded as 100; 50 μL 1,3-butylene glycol with 0.667 mM peptide solution; HPLC after 72±2 hours; average of three measurements
# Description: The product 1,3-butylene glycol in the present embodiment has reduced skin sensitization. Here, skin sensitization refers to causing an allergic reaction after skin contact. For the evaluation of skin sensitization, it had been normal to use experimental animals, but a direct peptide reactivity assay (DPRA), which is an in chemico test, was adopted as an alternative test in OECD guideline TG442C in 2015 from the viewpoint of animal welfare, and in the present embodiment as well, skin sensitization is evaluated by a test in accordance with DPRA. In more detail, skin sensitization is evaluated according to a method described in experimental examples to be described below.
# Regarding 1,3-butylene glycol obtained in Examples 1 and 2 and Comparative Examples 1 and 2, skin sensitization was evaluated according to the following method.
# 15 mg of Cysteine-containing peptide for DPRA manufactured by Scrum Inc. and 30 mL of a 0.05 M phosphate buffer were mixed together to prepare a 0.05 M phosphate buffer solution containing 0.667 mM of the peptide (hereinafter, peptide solution). After one hour elapsed from the preparation of the peptide solution, 750 μL of the peptide solution and 250 μL of acetonitrile were put into each of three brown sample bottles for HPLC to prepare three reference solutions. After two hours elapsed from the preparation of the reference solutions, 750 μL of the peptide solution, 200 μL of acetonitrile and 50 μL of 1,3-butylene glycol were put into a different brown sample bottle for HPLC to prepare a sample solution (sample solution 1). Furthermore, sample solutions were prepared by the same operation after four hours and six hours elapsed from the preparation of the sample solution, respectively (sample solution 2 and sample solution 3). Regarding each of the three reference solutions and the sample solutions (sample solution 1, sample solution 2 and sample solution 3), measurement by HPLC analysis was performed after 72±2 hours elapsed from the preparation of each solution, and the average values of three measurements were calculated for the peak height of the peptide in the reference solutions and the sample solutions, respectively. The peptide decrease percentage was calculated using the following formula (1) from the calculated average values of three measurements.
# Peptide decrease percentage (%)=(average value of three measurements for peak height of peptide in sample solutions/average value of three measurements for peak height of peptide in reference solutions)×100 (1)
# In addition, regarding the present test, samples of the product 1,3-butylene glycol to be compared were tested on the same day from the viewpoint of the reproducibility. […]
row,Structure (SMILES),Relative value of peptide decrease percentage
1,"CC(O)CCO (stereo not shown) [Comparative Example 1, 1,3-butylene glycol]",100
2,"CC(O)CCO (stereo not shown) [Comparative Example 2, 1,3-butylene glycol]",121
3,"CC(O)CCO (stereo not shown) [Example 1, 1,3-butylene glycol]",73
4,"CC(O)CCO (stereo not shown) [Example 2, 1,3-butylene glycol]",85
